According to patent US12024506B2, “Compounds” (Oxford University Innovation Limited, priority 2018, dated 2024):
pIC50: −log10 of the molar value. “Also recorded” adds a separate entry of the source.

Experiments:
Assay type in all cases: cell-based
[1] = tested on: DLD1 cells (ATCC CCL-221); test: Cell viability assay 1 (CellTiter-Glo), DLD1 cells; conditions: Homo sapiens, DLD-1 cells, 48 h, second value of the cell, read-out: Cell Viability DLD-1 (concentration that decreases cell viability by 50%)
Outline: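 DLD1 cells grown in RPMI-1640 with 10% FCS, 2 mM L-glutamine, 37 °C, 5% CO2, plated overnight then exposed to compound (0.5% DMSO) for 48 h. Viability by CellTiter-Glo luminescence; value is concentration reducing viability by 50% from dose-response curves.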

[2] = target: T1, NRASQ61H interaction with PI3K, CRAF, RALGDS (Homo sapiens, UniProt P01111, Q61H); test: BRET2 cell assay, NRAS Q61H-effector interaction; conditions: HEK293T cells, 5, 10 and 20 μM, 20 h
T1 construct: expressed in transfected cells; host or cells: HEK293T
Source text: (§1) The BRET ratio corresponds to the light emitted by the GFP2 acceptor constructs (515 nm±30) upon addition of Coelenterazine 400a divided by the light emitted by the RLuc8 donor constructs (410 nm±80). The normalized BRET ratio is the BRET ratio normalized to the DMSO negative and calculated as follows: (BRETcompound/BRETDMSO)×100, where BRETcompound corresponds to the BRET ratio for the compound-treated cells, BRETDMSO to the DMSO-treated cells. Each experiment was repeated at least three times. Statistical analyses were performed using a one-way ANOVA followed by Dunnett's post-tests (*P<0.05, **P<0.01, ***P<0.001, ****P<0.0001). Where error bars are presented, they correspond to mean values±SD of biological repeats (a-c).
(§2) HEK293T cells were transfected 24 hr with plasmids expressing the NRAS Q61H […] and HRAS G12V (B, D) biosensors together with the indicated RBDs of PI3K, CRAF and RALGDS (A, B) or full-length CRAF. […]
(§3) 650,000 HEK293T were seeded in each well of a 6 well plate. […] The final concentrations in the cells were 0, 5, 10 and 20 µM (therefore the intermediate 10× concentrations were 0, 50, 100 and 200 μM. 10 μL of 10× compounds were added in each well of the 96 well plate to 0, 5, 10 and 20 µM final concentrations (with final 0.2% DMSO each). Quadruplicates were performed for each point. Cells were left for an additional 20 hours at 37° C. before the BRET2 signal reading directly after addition of Coelenterazine 400a substrate (10 µM final) to cells (Cayman Chemicals, cat #16157). BRET2 reading was carried out on an Envision instrument (2103 Multilabel Reader, PerkinElmer) with the BRET2 Dual Emission optical module (515 nm±30 and 410 nm±80; PerkinElmer).
(§4) The ability of Example compound 56 to inhibit RAS-effector PPI using the above cell-based RAS-effector BRET2 assay was investigated. […] We determined the effect of compound 56 (labelled Abd-7) on the interaction of KRAS^G12D and with PI3Kα and PI3Kγ, CRAF RAS-binding domain (RBD) and RALGDS RAS-associating domain (RA) compared with the low affinity Reference Compound Abd-2 FIG. 1a). […]

[3] = target: T2, HRASG12V interaction with PI3K, CRAF, RALGDS (Homo sapiens, UniProt P01112, G12V); test: BRET2 cell assay, HRAS G12V-effector interaction; conditions: HEK293T cells, 5, 10 and 20 μM, 20 h
T2 construct: expressed in transfected cells; host or cells: HEK293T
Source text: as §1, §2, §3, §4

[4] = tested on: H358 cells (ATCC CRL-5807); test: Cell viability assay 1 (CellTiter-Glo), H358 cells; conditions: Homo sapiens, NCI-H358, 48 h, first value of the cell, read-out: Cell Viability H358 (concentration that decreases cell viability by 50%)
Outline: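 H358 cells were grown in RPMI-1640 with 10% FCS and 2 mM L-glutamine, plated at 5000 cells/well and allowed to adhere overnight. Compound was added in 0.5% DMSO final for 48 h at 37° C. Viability was read by CellTiter-Glo luminescence, with the 50% viability-reducing concentration derived from dose-response curves.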

SMILES	pIC50 [1]	Effect on BRET signal, NRAS Q61H/effector interactions ([2]; formate salt)	Effect on BRET signal, HRAS G12V/effector interactions ([3]; formate salt)	pIC50 [4]	Effect on BRET signal, NRAS Q61H/effector interactions [2]	Effect on BRET signal, HRAS G12V/effector interactions [3]
COc1cc(-c2cccc3c2OCCO3)ccc1Nc1cccc(CN(C)C)c1.O=CO [compound 72, [4-(2,3-Dihydro-benzo[1,4]dioxin-5-yl)-2-methoxy-phenyl]-(3-dimethylaminomethyl-phenyl)-amine formate salt]	4.81	inhibits; also recorded: disturbs the BRET2 signal in dose response manner	inhibits; also recorded: disturbs the BRET2 signal in dose response manner	4.82	–	–
COc1nc(-c2cccc3c2OCCO3)ccc1Nc1ccc(CN(C)C)cc1 [compound 56, [6-(2,3-Dihydro-benzo[1,4]dioxin-5-yl)-2-methoxy-pyridin-3-yl]-(4-dimethylaminomethyl-phenyl)-amine]	5.10	–	–	4.92	interferes with all mutant RAS family member PPIs	interferes with all mutant RAS family member PPIs
